In US9493468B2, “Antifungal 5,6-dihydro-4H-pyrrolo[1,2-a][1,4]benzo-diazepines and 6H-pyrrolo[1,2-a][1,4]benzodiazepines substituted with heterocyclic derivatives” (Janssen Pharmaceutica NV, priority 2011, dated 2016):

Columns and labels:
Assay type in all cases: cell-based
Aspergillus fumigatus = experiment: Antifungal activity in vitro, resazurin growth inhibition: Aspergillus fumigatus (B42928)
Description: (§1) The standard susceptibility screen is performed in 96-well plates (U-bottom, Greiner Bio-One). Serial dilutions (2-fold or 4-fold) of 20 mM compound stock solutions are made in 100% DMSO, followed by an intermediate dilution step in water. These serial dilutions (10 μl) are then spotted onto test-plates that can be stored in the dark at 4° C. for a maximum period of 2 weeks. An adequate broad dose-range is included with 64 μM as the highest in-test concentration. The culture medium RPMI-1640 is supplemented with L-glutamine, 2% glucose and buffered with 3-(N-morpholino)-propanesulfonic acid (MOPS) at pH 7.0±0.1.
(§2) The different fungal species/isolates (Table 3a) are cryopreserved and 1/1000 diluted in medium just prior to use. A standard inoculum of 200 μl containing 10^3 colony-forming unit (cfu) is then added to each well. A positive control (100% growth=fungal culture without antifungal) and a negative control (0% growth ═RPMI-MOPS medium) are included on each plate. Optimal incubation time and temperature are dependent on the fungal species and vary from 24 h for yeasts (37° C.) to one week or more for dermatophytes (27° C.). Inhibition of fungal growth is measured after adding 10 μl of 0.005% (w/v) resazurin (Sigma Aldrich) to each well, based on the principle that living cells convert the non-fluorescent blue resazurin into the pink and fluorescent resorufin, allowing fluorimetric reading (λex 550 nm and λem 590 nm) after an additional incubation period (‘resa’ time mentioned in Table 3a).

[1] = test system: Trichophyton mentagrophytes; experiment: Antifungal activity in vitro, resazurin growth inhibition: Trichophyton mentagrophytes (B70554)
Description: as §1, §2

Sporothrix schenkii = experiment: Antifungal activity in vitro, resazurin growth inhibition: Sporothrix schenkii (B62482)
Description: as §1, §2

Candida parapsilosis = experiment: Antifungal activity in vitro, resazurin growth inhibition: Candida parapsilosis (B66126)
Description: as §1, §2

Trichophyton rubrum = experiment: Antifungal activity in vitro, resazurin growth inhibition: Trichophyton rubrum (B68183)
Description: as §1, §2

Microsporum canis = experiment: Antifungal activity in vitro, resazurin growth inhibition: Microsporum canis (B68128)
Description: as §1, §2

Cryptococcus neoformans = experiment: Antifungal activity in vitro, resazurin growth inhibition: Cryptococcus neoformans (B66663)
Description: as §1, §2

Structure (SMILES)	Inf. E: Aspergillus fumigatus B42928, pIC50 (Aspergillus fumigatus)	Inf. G: Trichophyton mentagrophytes B70554, pIC50 [1]	Inf. A: Sporothrix schenkii B62482, pIC50 (Sporothrix schenkii)	Inf. D: Candida parapsilosis B66126, pIC50 (Candida parapsilosis)	Inf. C: Trichophyton rubrum B68183, pIC50 (Trichophyton rubrum)	Inf. B: Microsporum canis B68128, pIC50 (Microsporum canis)	Inf. F: Cryptococcus neoformans B66663, pIC50 (Cryptococcus neoformans)
Cl.FC(F)(F)c1ccc(C2NCc3c(Cl)cccc3-n3cccc32)nn1 (racemic) [Compound 28]	<4.19	4.28	<4.19	<4.19	4.43	4.29	<4.19
Cl.c1ccc2c(c1)CNC(c1cc3ccccc3o1)c1cccn1-2 (racemic) [Compound 29]	<4.19	5.30	<4.19	<4.19	5.70	5.30	4.80
Cl.Clc1cc(Cl)c2c(c1)-n1cccc1C(c1cc3ccccc3o1)NC2 (racemic) [Compound 31]	<4.19	4.87	<4.19	<4.19	5.31	5.59	<4.19
Cc1cccc2c1CNC(c1cc3ccccc3o1)c1cccn1-2.Cl (racemic) [Compound 32]	<4.19	5.70	4.35	<4.19	6.10	5.70	4.39
Cc1cccc2c1-n1cccc1C(c1cc3ccccc3o1)NC2.Cl (racemic) [Compound 33]	<4.19	4.98	<4.19	<4.19	4.49	5.22	4.38
Cl.Clc1ccc2oc(C3NCc4c(Cl)cccc4-n4cccc43)cc2c1 (racemic) [Compound 35]	<4.19	5.70	<4.19	<4.19	6.07	5.70	<4.19
Cc1cccc2oc(C3NCc4c(Cl)cccc4-n4cccc43)cc12.Cl (racemic) [Compound 36]	<4.19	5.21	<4.19	<4.19	5.10	5.19	<4.19
Cc1cccc2oc(C3NCc4ccc(Cl)cc4-n4cccc43)cc12.Cl (racemic) [Compound 37]	<4.19	4.41	<4.19	<4.19	5.31	4.38	5.39
Cc1ccc2cc(C3NCc4ccccc4-n4cccc43)oc2c1.Cl (racemic) [Compound 38]	4.41	5.22	4.40	<4.19	5.22	5.15	<4.19
Cc1ccc2cc(C3NCc4c(Cl)cccc4-n4cccc43)oc2c1.Cl (racemic) [Compound 39]	5.52	5.15	5.52	<4.19	5.15	5.52	<4.19
